Source: EP3031808B1, “SALT OF IDELALISIB” (ratiopharm GmbH, priority 2014, dated 2016)
Read-outs that look alike come from different tables or passages of the source.

Tests used:
[1] = solubilities of salts of idelalisib in buffers and selected media
[2] = cited from earlier work
[3] = water demin. (pH dep.), 15 min.
[4] = water demin. (pH dep.), 60 min.

Molecule	solubilities ([1]; 0,01m HCl pH ∼2,2, 15 min.)	solubilities ([1]; 0,01m HCl pH ∼2,2, 60 min.)	solubilities ([1]; 20mM NaOAc pH 4.5, 15 min.)	solubilities ([1]; 20mM NaOAc pH 4.5, 60 min.)	solubilities ([1]; 50mM KH2PO4 pH 6.8, 15 min.)	solubilities ([1]; 50mM KH2PO4 pH 6.8, 60 min.)	solubilities ([1]; 0.1 % TPGS (FaSSIF), 15 min.)	solubilities ([1]; 0.1 % TPGS (FaSSIF), 60 min.)	solubilities ([1]; 2.0% TPGS (FeSSIF), 15 min.)	solubilities ([1]; 2.0% TPGS (FeSSIF), 60 min.)	solubilities [1, 3]	solubilities [1, 4]	solubility in water ([2]; water at pH 1.2)	solubility in water ([2]; water at pH 7)	solubility compared to the free base of idelalisib ([1]; general statement)
CC[C@H](Nc1ncnc2[nH]cnc12)c1nc2cccc(F)c2c(=O)n1-c1ccccc1 [Base, 5-fluoro-3-phenyl-2-[(1S)-1-(9H-purin-6-ylamino)propyl]quinazolin-4(3H)-one]	0.947	1.051	0.092	0.100	0.086	0.088	0.141	0.107	1.056	1.172	0.098	0.081	soluble	practically insoluble	–
Maleate	2.445	2.655	0.411	0.475	0.355	0.393	0.662	1.121	6.798	6.984	1.934	2.095	–	–	increased
